Key:
Format in all cases: biochemical
p110δ/p85α = molecular target: T1, p110δ/p85α (Homo sapiens, UniProt O00329); experiment: Transcreener KINASE Assay, kinase inhibition of p110δ/p85α; settings: for IC50: read-out: PI3Kδ IC50
T1 construct: purchased Invitrogen
Protocol: (§1) PI3K kinases including p110α/p85α, p110δ/p85α and p110γ are purchased from Invitrogen, and p110β/p85α is from Millipore.
(§2) Primary screening data and IC50 values are measured using Transcreener™ KINASE Assay (Bellbrook, Catalog #3003-10K). […] It is a universal, homogenous, high throughput screening (HTS) technology using a far-red, competitive fluorescence polarization immunoassay based on the detection of ADP to monitor the activity of enzymes that catalyze group transfer reactions. Briefly, the Transcreener KINASE Assay is designed as a simple two-part, endpoint assay.
(§3) In the first step, the 25 ul kinase reaction is performed by preparing a reaction mixture containing 5 ul test compound (2% DMSO final concentration), 10 ul kinase, buffer (50 mM HEPES, 100 mM NaCl, 1 mM EGTA, 0.03% CHAPS, 3 mM MgCl2, and freshly supplemented 1 mM DTT), and 10 ul 30 uM PIP2/10 uM ATP. The plate is sealed and incubated for 80 min at room temperature. Next, 25 ul ADP detection mix is added per well. The plate is sealed again and incubated for 60 min at room temperature, and then measure fluorescence polarization by Tecan Infinite F500 Reader.
(§4) Data is analyzed and IC50s are generated using the add-in software for Microsoft Excel, Xlfit™ (version 2.0). IH %=(ADP amount under 2% DMSO-ADP amount under test compound)/ADP amount under 2% DMSO.

p110β/p85α = molecular target: T2, p110β/p85α (Homo sapiens, UniProt P42338); experiment: Transcreener KINASE Assay, kinase inhibition of p110β/p85α; settings: for IC50: read-out: PI3Kβ IC50
T2 construct: purchased Millipore
T2 sequence (P42338 whole entry, species assumed): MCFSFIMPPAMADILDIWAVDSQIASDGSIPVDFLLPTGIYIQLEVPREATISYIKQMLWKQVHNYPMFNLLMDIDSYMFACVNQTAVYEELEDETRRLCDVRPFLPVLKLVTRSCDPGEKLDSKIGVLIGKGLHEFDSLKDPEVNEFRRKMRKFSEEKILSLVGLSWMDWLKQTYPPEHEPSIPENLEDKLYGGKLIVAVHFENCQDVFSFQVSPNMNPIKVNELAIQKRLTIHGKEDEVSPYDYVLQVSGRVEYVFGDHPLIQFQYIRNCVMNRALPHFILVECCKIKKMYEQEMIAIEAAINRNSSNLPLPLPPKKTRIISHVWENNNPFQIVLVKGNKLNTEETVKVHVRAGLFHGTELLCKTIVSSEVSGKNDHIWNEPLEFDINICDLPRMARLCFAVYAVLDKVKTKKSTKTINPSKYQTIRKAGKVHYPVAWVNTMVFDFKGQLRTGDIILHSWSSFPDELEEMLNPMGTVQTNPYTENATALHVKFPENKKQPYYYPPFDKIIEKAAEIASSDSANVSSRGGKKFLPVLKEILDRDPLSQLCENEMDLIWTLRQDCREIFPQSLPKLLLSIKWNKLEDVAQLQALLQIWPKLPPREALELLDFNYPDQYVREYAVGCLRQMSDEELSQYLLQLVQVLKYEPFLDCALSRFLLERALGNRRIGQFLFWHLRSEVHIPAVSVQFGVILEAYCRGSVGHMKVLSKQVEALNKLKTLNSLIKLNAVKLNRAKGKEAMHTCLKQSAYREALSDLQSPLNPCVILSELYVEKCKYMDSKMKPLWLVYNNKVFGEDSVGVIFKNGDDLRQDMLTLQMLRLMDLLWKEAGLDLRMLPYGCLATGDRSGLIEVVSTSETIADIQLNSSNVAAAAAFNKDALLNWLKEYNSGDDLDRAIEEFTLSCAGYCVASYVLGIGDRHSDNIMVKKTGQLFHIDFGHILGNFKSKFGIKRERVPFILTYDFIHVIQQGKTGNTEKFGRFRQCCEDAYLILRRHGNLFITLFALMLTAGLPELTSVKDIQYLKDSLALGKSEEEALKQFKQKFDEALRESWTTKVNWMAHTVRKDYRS
T2 sequence (P27986 whole entry partner, species assumed): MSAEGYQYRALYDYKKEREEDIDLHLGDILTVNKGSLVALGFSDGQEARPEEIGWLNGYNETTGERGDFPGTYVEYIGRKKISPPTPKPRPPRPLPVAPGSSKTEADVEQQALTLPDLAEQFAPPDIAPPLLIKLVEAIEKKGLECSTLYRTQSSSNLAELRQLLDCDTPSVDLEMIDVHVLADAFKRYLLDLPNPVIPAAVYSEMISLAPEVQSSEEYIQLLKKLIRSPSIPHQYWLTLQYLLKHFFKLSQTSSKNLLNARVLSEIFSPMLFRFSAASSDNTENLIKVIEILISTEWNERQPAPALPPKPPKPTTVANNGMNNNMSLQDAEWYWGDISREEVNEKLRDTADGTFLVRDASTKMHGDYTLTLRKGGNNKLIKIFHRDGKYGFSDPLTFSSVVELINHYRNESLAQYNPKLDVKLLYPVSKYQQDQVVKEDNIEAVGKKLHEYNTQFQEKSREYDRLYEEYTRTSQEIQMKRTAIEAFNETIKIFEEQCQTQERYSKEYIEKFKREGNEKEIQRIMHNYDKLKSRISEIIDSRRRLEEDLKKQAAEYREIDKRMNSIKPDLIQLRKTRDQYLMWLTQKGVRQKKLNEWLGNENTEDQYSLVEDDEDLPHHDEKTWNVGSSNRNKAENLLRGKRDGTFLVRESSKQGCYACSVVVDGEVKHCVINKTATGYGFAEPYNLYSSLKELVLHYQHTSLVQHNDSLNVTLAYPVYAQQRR
Protocol: as §1, §2, §3, §4

p110γ = molecular target: T3, p110γ (Homo sapiens, UniProt P48736); experiment: Transcreener KINASE Assay, kinase inhibition of p110γ; settings: for IC50: read-out: PI3Kγ IC50
T3 construct: purchased Invitrogen
T3 sequence (P48736 whole entry, species assumed): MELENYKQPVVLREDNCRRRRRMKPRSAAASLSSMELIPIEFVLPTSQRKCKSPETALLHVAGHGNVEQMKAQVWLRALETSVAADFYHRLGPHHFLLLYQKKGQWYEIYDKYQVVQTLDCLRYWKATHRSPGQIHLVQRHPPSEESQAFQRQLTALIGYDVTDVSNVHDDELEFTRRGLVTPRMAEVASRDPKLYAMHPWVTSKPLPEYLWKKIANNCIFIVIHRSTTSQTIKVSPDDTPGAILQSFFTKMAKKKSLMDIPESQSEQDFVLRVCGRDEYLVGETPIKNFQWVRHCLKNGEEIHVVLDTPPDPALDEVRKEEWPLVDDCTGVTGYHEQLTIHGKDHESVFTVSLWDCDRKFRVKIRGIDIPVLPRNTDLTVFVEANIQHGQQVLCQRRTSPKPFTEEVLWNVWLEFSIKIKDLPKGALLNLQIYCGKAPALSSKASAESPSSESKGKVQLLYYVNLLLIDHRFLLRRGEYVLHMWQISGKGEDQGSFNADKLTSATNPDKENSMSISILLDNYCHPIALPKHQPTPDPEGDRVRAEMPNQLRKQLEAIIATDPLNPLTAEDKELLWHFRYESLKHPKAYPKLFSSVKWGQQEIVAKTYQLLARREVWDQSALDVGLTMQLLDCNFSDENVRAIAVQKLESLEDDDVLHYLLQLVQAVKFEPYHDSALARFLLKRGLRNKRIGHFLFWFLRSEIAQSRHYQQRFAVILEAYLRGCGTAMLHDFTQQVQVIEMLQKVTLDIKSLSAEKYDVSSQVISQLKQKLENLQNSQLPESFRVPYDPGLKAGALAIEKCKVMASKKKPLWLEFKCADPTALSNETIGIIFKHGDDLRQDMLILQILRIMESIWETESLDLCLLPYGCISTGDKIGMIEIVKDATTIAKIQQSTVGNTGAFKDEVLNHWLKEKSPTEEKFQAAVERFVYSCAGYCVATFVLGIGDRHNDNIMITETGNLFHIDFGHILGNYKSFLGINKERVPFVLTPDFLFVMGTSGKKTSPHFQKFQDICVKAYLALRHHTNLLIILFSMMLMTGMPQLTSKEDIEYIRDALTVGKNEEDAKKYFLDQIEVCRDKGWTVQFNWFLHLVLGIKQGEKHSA
Protocol: PI3K kinases including p110α/p85α, p110δ/p85α and p110γ are purchased from Invitrogen, and p110β/p85α is from Millipore. Primary screening data and IC50 values are measured using Transcreener™ KINASE Assay (Bellbrook, Catalog #3003-10K). […] It is a universal, homogenous, high throughput screening (HTS) technology using a far-red, competitive fluorescence polarization immunoassay based on the detection of ADP to monitor the activity of enzymes that catalyze group transfer reactions. Briefly, the Transcreener KINASE Assay is designed as a simple two-part, endpoint assay. […] The plate is sealed and incubated for 80 min at room temperature. Next, 25 ul ADP detection mix is added per well. The plate is sealed again and incubated for 60 min at room temperature, and then measure fluorescence polarization by Tecan Infinite F500 Reader. Data is analyzed and IC50s are generated using the add-in software for Microsoft Excel, Xlfit™ (version 2.0).

T1 sequence (O00329 whole entry, species assumed): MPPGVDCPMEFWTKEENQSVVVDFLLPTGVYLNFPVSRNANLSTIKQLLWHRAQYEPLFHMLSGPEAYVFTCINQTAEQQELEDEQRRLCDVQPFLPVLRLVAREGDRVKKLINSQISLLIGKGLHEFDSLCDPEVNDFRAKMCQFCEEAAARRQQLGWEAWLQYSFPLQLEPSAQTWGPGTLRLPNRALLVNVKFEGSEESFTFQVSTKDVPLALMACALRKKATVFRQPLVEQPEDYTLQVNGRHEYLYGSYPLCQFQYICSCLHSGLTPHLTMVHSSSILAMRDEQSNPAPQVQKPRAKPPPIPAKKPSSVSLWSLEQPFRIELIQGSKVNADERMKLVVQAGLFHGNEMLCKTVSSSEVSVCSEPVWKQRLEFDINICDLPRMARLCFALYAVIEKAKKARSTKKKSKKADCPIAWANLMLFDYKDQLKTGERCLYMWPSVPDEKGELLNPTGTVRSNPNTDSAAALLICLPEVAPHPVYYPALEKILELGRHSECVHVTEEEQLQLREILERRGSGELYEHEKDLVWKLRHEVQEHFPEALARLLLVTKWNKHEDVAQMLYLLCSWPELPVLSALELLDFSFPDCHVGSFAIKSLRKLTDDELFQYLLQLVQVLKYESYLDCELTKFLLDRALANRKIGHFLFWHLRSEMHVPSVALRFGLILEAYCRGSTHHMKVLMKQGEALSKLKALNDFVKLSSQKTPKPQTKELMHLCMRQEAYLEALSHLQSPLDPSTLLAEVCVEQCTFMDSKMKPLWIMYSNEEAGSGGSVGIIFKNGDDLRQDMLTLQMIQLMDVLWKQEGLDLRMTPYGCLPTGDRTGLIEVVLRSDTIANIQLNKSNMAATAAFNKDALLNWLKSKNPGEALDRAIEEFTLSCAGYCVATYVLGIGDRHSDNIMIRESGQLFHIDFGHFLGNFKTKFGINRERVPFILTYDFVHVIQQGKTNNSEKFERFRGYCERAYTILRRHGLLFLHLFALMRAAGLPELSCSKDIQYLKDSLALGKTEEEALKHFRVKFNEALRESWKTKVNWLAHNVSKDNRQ
T1 sequence (P27986 whole entry partner, species assumed): as the sequence (P27986 whole entry partner, species assumed) above

Row | IC50 (p110δ/p85α) [nM] | IC50 (p110γ) [nM] | SMILES | further results
1 | 35 |  | CC(Nc1ncnc2[nH]cc(F)c12)c1cc2ncc(Cl)n2c(=O)n1-c1ccccc1 (single isomer, unassigned) [Compound 451] | 
2 | 0.3 | 1 | CC(=O)c1cnc(N)nc1NC(C)c1cn2ccc(F)c2c(=O)n1-c1ccccc1 (single isomer, unassigned) [Compound 452] | IC50 (p110β/p85α): 13 nM
3 | ~1 |  | Cc1ccn2nc([C@@H]3CCCN3c3ncnc4[nH]cc(C#N)c34)n(-c3ccccc3)c(=O)c12 [Compound 42] | 
4 |  |  | N#Cc1c[nH]c2ncnc(N3C[C@H](O)C[C@H]3c3nn4ccc(Cl)c4c(=O)n3-c3ccccc3)c12 [Compound 70, 4-((2S,4R)-2-(5-chloro-4-oxo-3-phenyl-3,4-dihydropyrrolo[1,2-f][1,2,4]triazin-2-yl)-4-hydroxypyrrolidin-1-yl)-7H-pyrrolo[2,3-d]pyrimidine-5-carbonitrile] | PI3Kγ IH % @ 1 uM (p110γ): >100%
5 |  | 18 | CC(Nc1ncnc2[nH]cnc12)c1cn2ccc(Cl)c2c(=O)n1-c1ccc(F)cc1 (centres unmarked) [Compound 78] | IC50 (p110β/p85α): 26 nM
6 |  |  | CC(Nc1ncnc(N)c1C#N)c1cn2ccc(Cl)c2c(=O)n1-c1ccc(F)cc1 (centres unmarked) [Compound 79] | IC50 (p110β/p85α): 6 nM; PI3Kδ IH % @ 1 uM (p110δ/p85α): 99.0%
7 | 7 | 46 | CC(Nc1ncnc2[nH]cnc12)c1cn2ccc(Cl)c2c(=O)n1-c1cc(F)cc(F)c1 (centres unmarked) [Compound 80] | PI3Kδ IH % @ 1 uM (p110δ/p85α): >100%
8 | < 0.5 |  | Nc1ncc(-c2c[nH]c3ncnc(N4CC[C@H]4c4nn5ccc(Cl)c5c(=O)n4-c4ccccc4)c23)cn1 [Compound 104] | 
9 | 97 | 199 | COc1ccc(-c2c(N)ncnc2N2CC[C@H]2c2nn3ccc(Cl)c3c(=O)n2-c2ccccc2)cn1 [Compound 108, (S)-2-(1-(6-amino-5-(6-methoxypyridin-3-yl)pyrimidin-4-yl)azetidin-2-yl)-5-chloro-3-phenylpyrrolo[1,2-f][1,2,4]triazin-4(3H)-one] | 
10 |  |  | O=c1c2c(Cl)ccn2nc([C@@H]2CCCN2c2ncnc3[nH]ccc23)n1-c1ccccc1 [Compound 145] | PI3Kγ IH % @ 1 uM (p110γ): 100%
11 | 11 | 165 | O=c1c2c(Cl)ccn2nc([C@@H]2COCCN2c2ncnc3[nH]cnc23)n1-c1ccccc1 [Compound 153] | 
12 |  |  | N#Cc1c[nH]c2ncnc(N3C[C@@H](F)C[C@H]3c3nn4ccc(Cl)c4c(=O)n3Cc3ccccn3)c12 [Compound 158] | PI3Kγ IH % @ 1 uM (p110γ): 100%
13 | < 0.46 |  | COc1ncc(-c2c[nH]c3ncnc(N4CC[C@H]4c4nn5ccc(F)c5c(=O)n4-c4ccccc4)c23)cn1 [Compound 181] | 
14 | < 0.46 |  | COc1ccc(-c2c[nH]c3ncnc(N4CC[C@H]4c4nn5ccc(F)c5c(=O)n4-c4ccccc4)c23)cn1 [Compound 182] | 
15 | < 0.46 |  | Nc1ccc(-c2c[nH]c3ncnc(N4CC[C@H]4c4nn5ccc(F)c5c(=O)n4-c4ccccc4)c23)cn1 [Compound 183] | 
16 |  | 33 | C[S+]([O-])c1c[nH]c2ncnc(N3CCC[C@H]3c3nn4ccc(Cl)c4c(=O)n3-c3ccccc3)c12 (some centres unmarked) [Compound 187] | IC50 (p110β/p85α): 88 nM
17 | < 1 |  | O=c1c2c(Cl)ccn2nc([C@@H]2C[C@H](O)CN2c2ncnc3[nH]cnc23)n1-c1ccccc1 [Compound 262] | 
18 | 40 | 25 | Nc1ncc([N+](=O)[O-])c(N2CC[C@H]2c2nn3ccc(Cl)c3c(=O)n2-c2ccccc2)n1 [Compound 282] | 
19 | 21 | 37 | CO/N=C(\C)c1c[nH]c2ncnc(N3CCC[C@H]3c3nn4ccc(Cl)c4c(=O)n3-c3ccccc3)c12 [Compound 308] | 
20 | > 300 |  | CC(O)c1cnc(N)nc1N1CC[C@H]1c1nn2ccc(Cl)c2c(=O)n1-c1ccccc1 (stereo partly drawn) [Compound 357, 2-((2S)-1-(2-amino-5-(1-hydroxyethyl)pyrimidin-4-yl)azetidin-2-yl)-5-chloro-3-phenylpyrrolo[2,1-f][1,2,4]triazin-4(3H)-one] | 
21 |  |  | C[S+]([O-])c1cnc(N)nc1N1CC[C@H]1c1nn2ccc(Cl)c2c(=O)n1-c1ccccc1 (some centres unmarked) [Compound 399] | PI3Kβ IH % @ 1 uM (p110β/p85α; @ 1 uM): 3.5%

Source: US20150291593A1, “NOVEL HETEROARYL AND HETEROCYCLE COMPOUNDS, COMPOSITIONS AND METHODS” (HUTCHISON MEDIPHARMA LIMITED, priority 2012, published 2015)
